ChEMBL document CHEMBL3045393, “Aryldiones incorporating a [1,4,5]oxadiazepane ring. Part I: Discovery of the novel cereal herbicide pinoxaden” (Bioorg Med Chem, 2009)

tested on: Avena fatua; assay: Post-emergence herbicidal activity against Avena fatua at 500 g a.i./ha measured after 15 days; type: functional; details: not given

SMILES	Activity
Cc1cc(C)c(C2C(=O)N3CCCC(C)N3C2=O)c(C)c1 (stereo not given)	90%
Cc1cc(C)c(C2C(=O)N3CCCN3C2=O)c(C)c1	20%
Cc1cc(C)c(C2C(=O)N(C)N(C)C2=O)c(C)c1	40%
COC1CN2C(=O)C(c3c(C)cc(C)cc3C)C(=O)N2C1	20%
Cc1cc(C)c(C2C(=O)N3CCC(C)CN3C2=O)c(C)c1 (stereo not given)	90%

tested on: Setaria faberi; assay: Post-emergence herbicidal activity against Setaria faberi (Giant Foxtail) at 250 g a.i./ha measured after 21 days in presence of 1% Merge adjuvant; type: functional; details: not given

SMILES	Activity
Cc1cc(C)c(C2C(=O)N3CCCOCN3C2=O)c(C)c1 (stereo not given)	50%
Cc1cc(C)c(C2C(=O)N3CCOCCN3C2=O)c(C)c1	90%
Cc1cc(C)c(C2C(=O)N3CCOCN3C2=O)c(C)c1 (stereo not given)	90%

tested on: Alopecurus myosuroides; assay: Post-emergence herbicidal activity against Alopecurus myosuroides at 500 g a.i./ha measured after 15 days; type: functional; details: not given

SMILES	Activity
Cc1cc(C)c(C2C(=O)N3CCCC(C)N3C2=O)c(C)c1 (stereo not given)	40%
Cc1cc(C)c(C2C(=O)N3CCCN3C2=O)c(C)c1	40%
Cc1cc(C)c(C2C(=O)N(C)N(C)C2=O)c(C)c1	40%
COC1CN2C(=O)C(c3c(C)cc(C)cc3C)C(=O)N2C1	20%
Cc1cc(C)c(C2C(=O)N3CCC(C)CN3C2=O)c(C)c1 (stereo not given)	90%

tested on: Lolium perenne; assay: Post-emergence herbicidal activity against Lolium perenne (perennial ryegrass) at 30 g a.i./ha measured after 21 days in presence of 1% Merge adjuvant; type: functional; details: not given

SMILES	Activity
Cc1cc(C)c(C2C(=O)N3CCOCCN3C2=O)c(C)c1	80%

tested on: Avena fatua; assay: Post-emergence herbicidal activity against Avena fatua at 250 g a.i./ha measured after 21 days in presence of 1% Merge adjuvant; type: functional; details: not given

SMILES	Activity
Cc1cc(C)c(C2C(=O)N3CCCOCN3C2=O)c(C)c1 (stereo not given)	0%
Cc1cc(C)c(C2C(=O)N3CCOCCN3C2=O)c(C)c1	90%
Cc1cc(C)c(C2C(=O)N3CCOCN3C2=O)c(C)c1 (stereo not given)	90%

tested on: Triticum aestivum; assay: Phytotoxicity against Triticum aestivum (wheat) at 250 g a.i./ha applied post-emergence measured after 21 days in presence of 1% Merge adjuvant; type: organism-based; details: in vivo, other, 504 h

SMILES	Activity
Cc1cc(C)c(C2C(=O)N3CCCOCN3C2=O)c(C)c1 (stereo not given)	10%
Cc1cc(C)c(C2C(=O)N3CCOCCN3C2=O)c(C)c1	50%
Cc1cc(C)c(C2C(=O)N3CCOCN3C2=O)c(C)c1 (stereo not given)	20%

tested on: Triticum aestivum; assay: Phytotoxicity against Triticum aestivum (wheat) at 500 g a.i./ha applied post-emergence measured after 15 days; type: organism-based; details: in vivo, other, 360 h

SMILES	Activity
Cc1cc(C)c(C2C(=O)N3CCCC(C)N3C2=O)c(C)c1 (stereo not given)	20%
Cc1cc(C)c(C2C(=O)N3CCCN3C2=O)c(C)c1	0%
Cc1cc(C)c(C2C(=O)N(C)N(C)C2=O)c(C)c1	10%
COC1CN2C(=O)C(c3c(C)cc(C)cc3C)C(=O)N2C1	0%
Cc1cc(C)c(C2C(=O)N3CCC(C)CN3C2=O)c(C)c1 (stereo not given)	50%

tested on: Hordeum vulgare; assay: Phytotoxicity against Hordeum vulgare (barley) at 30 g a.i./ha applied post-emergence measured after 21 days in presence of 1% Merge adjuvant; type: organism-based; details: in vivo, other, 504 h

SMILES	Activity
Cc1cc(C)c(C2C(=O)N3CCOCCN3C2=O)c(C)c1	0%

tested on: Alopecurus myosuroides; assay: Post-emergence herbicidal activity against Alopecurus myosuroides at 30 g a.i./ha measured after 21 days in presence of 1% Merge adjuvant; type: functional; details: not given

SMILES	Activity
Cc1cc(C)c(C2C(=O)N3CCOCCN3C2=O)c(C)c1	10%

tested on: Lolium perenne; assay: Post-emergence herbicidal activity against Lolium perenne (perennial ryegrass) at 500 g a.i./ha measured after 15 days; type: functional; details: not given

SMILES	Activity
Cc1cc(C)c(C2C(=O)N3CCCC(C)N3C2=O)c(C)c1 (stereo not given)	90%
Cc1cc(C)c(C2C(=O)N3CCCN3C2=O)c(C)c1	80%
Cc1cc(C)c(C2C(=O)N(C)N(C)C2=O)c(C)c1	50%
COC1CN2C(=O)C(c3c(C)cc(C)cc3C)C(=O)N2C1	20%
Cc1cc(C)c(C2C(=O)N3CCC(C)CN3C2=O)c(C)c1 (stereo not given)	90%

tested on: Alopecurus myosuroides; assay: Post-emergence herbicidal activity against Alopecurus myosuroides at 250 g a.i./ha measured after 21 days in presence of 1% Merge adjuvant; type: functional; details: not given

SMILES	Activity
Cc1cc(C)c(C2C(=O)N3CCCOCN3C2=O)c(C)c1 (stereo not given)	0%
Cc1cc(C)c(C2C(=O)N3CCOCCN3C2=O)c(C)c1	80%
Cc1cc(C)c(C2C(=O)N3CCOCN3C2=O)c(C)c1 (stereo not given)	40%

tested on: Avena fatua; assay: Post-emergence herbicidal activity against Avena fatua at 2000 g a.i./ha after 21 days; type: functional; details: not given

SMILES	Activity
Cc1cc(C)c(C2C(=O)N3CCOCCN3C2=O)c(C)c1	100%

tested on: Setaria faberi; assay: Post-emergence herbicidal activity against Setaria faberi (Giant Foxtail) at 500 g a.i./ha after 21 days; type: functional; details: not given

SMILES	Activity
Cc1cc(C)c(C2C(=O)N3CCOCCN3C2=O)c(C)c1	80%

tested on: Lolium perenne; assay: Post-emergence herbicidal activity against Lolium perenne (perennial ryegrass) at 2000 g a.i./ha after 21 days; type: functional; details: not given

SMILES	Activity
Cc1cc(C)c(C2C(=O)N3CCOCCN3C2=O)c(C)c1	100%

tested on: Lolium perenne; assay: Post-emergence herbicidal activity against Lolium perenne (perennial ryegrass) at 500 g a.i./ha after 21 days; type: functional; details: not given

SMILES	Activity
Cc1cc(C)c(C2C(=O)N3CCOCCN3C2=O)c(C)c1	90%

tested on: Setaria faberi; assay: Post-emergence herbicidal activity against Setaria faberi (Giant Foxtail) at 500 g a.i./ha measured after 15 days; type: functional; details: not given

SMILES	Activity
Cc1cc(C)c(C2C(=O)N3CCCC(C)N3C2=O)c(C)c1 (stereo not given)	40%
Cc1cc(C)c(C2C(=O)N3CCCN3C2=O)c(C)c1	40%
Cc1cc(C)c(C2C(=O)N(C)N(C)C2=O)c(C)c1	80%
COC1CN2C(=O)C(c3c(C)cc(C)cc3C)C(=O)N2C1	60%
Cc1cc(C)c(C2C(=O)N3CCC(C)CN3C2=O)c(C)c1 (stereo not given)	50%

tested on: Hordeum vulgare; assay: Phytotoxicity against Hordeum vulgare (barley) at 500 g a.i./ha applied post-emergence measured after 15 days; type: organism-based; details: in vivo, other, 360 h

SMILES	Activity
Cc1cc(C)c(C2C(=O)N3CCCC(C)N3C2=O)c(C)c1 (stereo not given)	80%
Cc1cc(C)c(C2C(=O)N3CCCN3C2=O)c(C)c1	40%
Cc1cc(C)c(C2C(=O)N(C)N(C)C2=O)c(C)c1	20%
COC1CN2C(=O)C(c3c(C)cc(C)cc3C)C(=O)N2C1	0%
Cc1cc(C)c(C2C(=O)N3CCC(C)CN3C2=O)c(C)c1 (stereo not given)	90%

tested on: Setaria faberi; assay: Post-emergence herbicidal activity against Setaria faberi (Giant Foxtail) at 30 g a.i./ha measured after 21 days in presence of 1% Merge adjuvant; type: functional; details: not given

SMILES	Activity
Cc1cc(C)c(C2C(=O)N3CCOCCN3C2=O)c(C)c1	50%

tested on: Avena fatua; assay: Post-emergence herbicidal activity against Avena fatua at 500 g a.i./ha after 21 days; type: functional; details: not given

SMILES	Activity
Cc1cc(C)c(C2C(=O)N3CCOCCN3C2=O)c(C)c1	80%

tested on: Lolium perenne; assay: Post-emergence herbicidal activity against Lolium perenne (perennial ryegrass) at 250 g a.i./ha measured after 21 days in presence of 1% Merge adjuvant; type: functional; details: not given

SMILES	Activity
Cc1cc(C)c(C2C(=O)N3CCCOCN3C2=O)c(C)c1 (stereo not given)	20%
Cc1cc(C)c(C2C(=O)N3CCOCCN3C2=O)c(C)c1	90%
Cc1cc(C)c(C2C(=O)N3CCOCN3C2=O)c(C)c1 (stereo not given)	90%

tested on: Triticum aestivum; assay: Phytotoxicity against Triticum aestivum (wheat) at 30 g a.i./ha applied post-emergence measured after 21 days in presence of 1% Merge adjuvant; type: organism-based; details: in vivo, other, 504 h

SMILES	Activity
Cc1cc(C)c(C2C(=O)N3CCOCCN3C2=O)c(C)c1	0%

tested on: Hordeum vulgare; assay: Phytotoxicity against Hordeum vulgare (barley) at 250 g a.i./ha applied post-emergence measured after 21 days in presence of 1% Merge adjuvant; type: organism-based; details: in vivo, other, 504 h

SMILES	Activity
Cc1cc(C)c(C2C(=O)N3CCCOCN3C2=O)c(C)c1 (stereo not given)	10%
Cc1cc(C)c(C2C(=O)N3CCOCCN3C2=O)c(C)c1	20%
Cc1cc(C)c(C2C(=O)N3CCOCN3C2=O)c(C)c1 (stereo not given)	0%

tested on: Setaria faberi; assay: Post-emergence herbicidal activity against Setaria faberi (Giant Foxtail) at 2000 g a.i./ha after 21 days; type: functional; details: not given

SMILES	Activity
Cc1cc(C)c(C2C(=O)N3CCOCCN3C2=O)c(C)c1	100%

tested on: Avena fatua; assay: Post-emergence herbicidal activity against Avena fatua at 30 g a.i./ha measured after 21 days in presence of 1% Merge adjuvant; type: functional; details: not given

SMILES	Activity
Cc1cc(C)c(C2C(=O)N3CCOCCN3C2=O)c(C)c1	60%
